# Like-named read-outs stand apart in the source and are kept apart here.
# Experiments:
# [1] = system: A2780 ovarian tumour cells; assay: RNA concentration and RIN in A2780 cells after radiation with or without docetaxel; assay type: cell-based
# Method: Experiments were conducted to assess whether radiation with or without docetaxel treatment could induce changes in cellular RNA concentration and/or RIN values in A2780 ovarian tumour cells. […] In contrast under the tested conditions, radiation doses up to 5 Gray had no effect on cellular RNA integrity, as no changes in RIN values were observed compared to samples prior to radiation treatment (FIG. 5B). If cells were pre-incubated for 24 hours with 0.1 μM docetaxel prior to 10 Gray radiation treatment, the cellular RIN value decreased to 75% of pre-treatment values. There were additional decreases in RIN when radiation and chemotherapy were used together concurrently. […] Moreover, the combination of both radiation and docetaxel treatment induces even stronger reductions in both cellular RNA content and RNA integrity. These observations are consistent with those described above for tumours of patients with locally advanced breast cancer, in particular for the combined therapy post-treatment, where RNA concentration fell dramatically in response to FEC-D chemotherapy with concurrent radiation therapy and where differences between between responding patients (pCR) and non-reponding patients (no pCR) appeared to be observed post-treatment.
# [2] = system: SKBR3 breast tumour cells; assay: RNA concentration and RIN in SKBR3 cells after radiation with or without docetaxel; assay type: cell-based
# Method: It was then examined whether similar observations could be observed in vitro for specific breast tumour cell lines. […] If cells were pre-treated with 0.1 μM docetaxel prior to 10 Gray radiation, a 5-fold reduction in cellular RNA concentration was observed (19% of untreated cells). RNA concentration decreases 2 fold (or more) in BT-20, A2780 and MB-468 cells with radiation only. […] Concurrent docetaxel treatment with radiation therapy dramatically reduces cellular RNA content, consistent with the observed findings for patients with locally advanced breast cancer treated with FEC-D chemotherapy followed by radiation treatment. Similar findings were observed when the effects of the above treatments on RIN values were examined in SKBR3 (HER2+, ER−) cells (FIG. 6B).
# [3] = system: MCF-7 breast tumour cells; assay: RNA concentration and RIN in MCF-7 cells after radiation with or without docetaxel; assay type: cell-based
# Method: The effects of the above treatments on MCF-7 (ER+, HER2−) cells (FIGS. 7A and 7B) were examined, findings were similar to those of SKBR3 cells, with 4% and 73% reductions in RNA levels observed for the 10 Gray and 10 Gray/0.1 μM docetaxel treatments, respectively. […] Moreover, only a 4% reduction in cellular RIN values were observed when cells were pre-treated with 0.1 μM docetaxel prior to the 10 Gray radiation.
# A2780 cells [4] = assay: A2780 cells treated with 5 nM Docetaxel, 10 Gy radiation or both for 72 or 96 hours (RIN, RDI); assay type: cell-based; conditions: n=3
# Method: In another experiment, A2780 cells were treated with 5 nM Docetaxel, 10 Gy Radiation and 10 Gy Radiation+5 nM Docetaxel for 72 hours or 96 hours.
# [5] = system: anthracycline-resistant metastatic breast cancer; conditions: cited from earlier work
# metastatic breast cancer = conditions: cited from earlier work
# [6] = system: breast cancer, T1c-T3 N0-N1 disease; conditions: preoperative AC alone versus AC with addition of docetaxel; cited from earlier work
# [7] = system: breast cancer, T3, T4 or TxN2 disease; conditions: cited from earlier work
# A2780 cells [8] = assay: A2780 cells treated with increasing doses of Epirubicin with and without 10 Gy radiation (RIN, RDI, RNA concentration); assay type: cell-based; conditions: with 10 Gy radiation, 96 h post-radiation
# Method: A2780 cells were treated with increasing doses of Epirubicin with and without 10 Gy radiation.A2780 cells were plated into 6 cm plates in 4 ml of RPMI culture medium. The plates were placed in the incubator and the cells were allowed to adhere overnight. The next day, the medium was removed from all plates and new media containing the appropriate epirubicin concentration (1 pM, 5 pM, 20 nM, 50 nM, and 100 nM) was added to the plates. Cells were pre-treated for 24 h with epirubicin prior to receiving radiation treatment. The following day (24 h post epirubicin drug-treatment), the cells were given 10 Gy of x-ray radiation treatment (300 kV, 9 mA) in approximately 4.3 min of x-ray exposure using a RS320 Irradiation System (Gulmay Medical) The cells were returned to the cell culture incubator, and RNA was extracted from the cells 96 h post-radiation treatment (which corresponds to 120 h post-epirubicin treatment).
# MCF-7 cells = MCF-7 cells treated with increasing doses of Epirubicin with and without 10 Gy radiation (RIN, RDI, RNA concentration); assay type: cell-based
# Method: FIG. 9: Graphs of MCF-7 cells were treated with increasing doses of Epirubicin with and without 10 Gy radiation. A) RIN value vs. Epirubicin; B) RDI value vs. Epirubicin; C) RNA concentration vs. Epirubicin Dose.
# [9] = system: stage IIB to III locally advanced breast cancer; conditions: cited from earlier work
# [10] = system: locally advanced breast cancer; conditions: paclitaxel 175 mg/m^2 and 5FU with 50.4 Gy, then 3 cycles of FEC, then surgery; 23 patients; cited from earlier work
# [11] = pre-treated with 0.1 μM docetaxel prior to 10 Gray radiation
# [12] = 35 mg/m^2 weekly for 3 of every 4 weeks
# [13] = after 4 cycles of CVAP, 4 cycles of docetaxel versus 4 more cycles of CVAP, intention-to-treat
# [14] = paclitaxel 30 mg/m^2 twice weekly with radiation to 45 Gy, then surgery
smiles,measurement,setting,value
CC(=O)O[C@@]12CO[C@@H]1C[C@H](O)[C@@]1(C)C(=O)[C@H](O)C3=C(C)[C@@H](OC(=O)[C@H](O)[C@@H](NC(=O)OC(C)(C)C)c4ccccc4)C[C@@](O)([C@@H](OC(=O)c4ccccc4)[C@H]21)C3(C)C [docetaxel],effect of concurrent docetaxel on radiation-induced reduction of RNA content and integrity,"[1]; 0.1 μM docetaxel, 10 Gray",strongly augmented
same,"cellular RIN value, % of pre-treatment values",[1]; pre-incubated 24 hours with 0.1 μM docetaxel prior to 10 Gray radiation,75%
same,additional reduction of cellular RNA concentration,"[1]; pre-incubation with 0.1 μM docetaxel, 10 Gray radiation, versus radiation alone",6.5 fold
same,effect of concurrent docetaxel on effects of radiation on RNA content and RNA integrity,"[2]; 0.1 μM docetaxel, 10 Gray",strongly augmented
same,"cellular RNA concentration, % of untreated cells",[2]; [11],19%
same,reduction in cellular RNA concentration,[2]; [11],5 fold
same,reduction in cellular RIN values,"[2]; radiation, cells pre-treated with docetaxel",9%
same,effect of concurrent docetaxel on effect of radiation on RNA content and integrity,"[3]; 0.1 μM docetaxel, 10 Gray",only slightly augmented
same,reduction in RNA levels,[3]; 10 Gray/0.1 μM docetaxel,73%
same,reduction in cellular RIN values,[3]; [11],4%
same,mean RDI value,"A2780 cells [4]; 10 Gy radiation + 5 nM Docetaxel compared with Docetaxel alone, 96 hr",increase in RDI value
same,mean RIN value,"A2780 cells [4]; 10 Gy radiation + 5 nM Docetaxel, 72 hr",increased loss in RIN value
same,response rates,[5],up to 50%
same,overall survival (OS),metastatic breast cancer; [12],18.6 months
same,progression-free survival,metastatic breast cancer; [12],5.5 months
same,overall survival (OS),metastatic breast cancer; 100 mg/m^2 every 3 weeks,18.3 months
same,progression-free survival,metastatic breast cancer; 100 mg/m^2 every 3 weeks,5.7 months
same,overall serious toxicity,metastatic breast cancer; Q 3-week arm,88.1%
same,overall serious toxicity,metastatic breast cancer; weekly arm,55.9%
same,clinical complete response (cCR),[6],63.6%
same,pCR,[6],26.1%
same,proportion of patients with negative nodes,[6],58.2%
same,DFS,[7]; 38 months median follow-up,90%
same,OS,[7]; 38 months median follow-up,97%
same,cCR,[7]; [13],94%
same,pCR,[7]; [13],31%
COc1cccc2c1C(=O)c1c(O)c3c(c(O)c1C2=O)C[C@@](O)(C(=O)CO)C[C@@H]3O[C@H]1C[C@H](N)[C@@H](O)[C@H](C)O1 [Epirubicin],RIN value vs Epirubicin dose,A2780 cells [8]; low doses of Epirubicin,loss in RIN value
same,RDI value vs Epirubicin dose,A2780 cells [8]; low drug doses,RDI values increase
same,RNA concentration vs Epirubicin dose,A2780 cells [8]; low drug doses,increased loss in RNA concentration
same,RIN value vs Epirubicin dose,MCF-7 cells; combined with 10 Gy radiation,loss in RIN value
same,RNA concentration vs Epirubicin dose,MCF-7 cells; increasing doses of Epirubicin,loss in RNA concentration
same,RDI value vs Epirubicin dose,"MCF-7 cells; with radiation, up to 100 uM Epirubicin",increase in RDI value
CC(=O)O[C@H]1C(=O)[C@@]2(C)[C@H]([C@H](OC(=O)c3ccccc3)[C@]3(O)C[C@H](OC(=O)[C@H](O)[C@@H](NC(=O)c4ccccc4)c4ccccc4)C(C)=C1C3(C)C)[C@]1(OC(C)=O)CO[C@@H]1C[C@@H]2O [paclitaxel],patients achieving a pCR,[9]; [14],Sixteen
same,patients achieving a pPR,[9]; [14],18%
same,grade 4 leucopenia,[9]; postoperative phase,10%
same,grade 4 toxicities,"[9]; preoperative chemoradiation phase, paclitaxel 30 mg/m^2 twice weekly with radiation to 45 Gy",No grade 4 toxicities were observed
same,clinical CR,[10],82.6%
same,overall 2-year survival,[10],80.7%
same,pCR,[10],52.2%

# — patent US10385400B2, “Methods and kits for monitoring response to radiation therapies in cancer” (RNA Diagnostics Inc., priority 2012, dated 2019)
